This is an account of results in ChEMBL document CHEMBL1139909, “Safrole oxide is a useful tool for investigating the effect of apoptosis in vascular endothelial cells on neural stem cell survival and differentiation in vitro” (2007).

The subject of test [1] is Endothelial cell. Put plainly: Induction of necrosis in neural stem cells co-cultured with vascular endothelial cells assessed as LDH release at 70 ug/mL after 10 hrs relative to control. The settings on record: Mus musculus. The class given is functional, cell-based. (Release of lactate dehydrogenase indicates damage to the cell membrane.)
For test [2], the system named is Endothelial cell. Put plainly: Induction of apoptosis in neural stem cells co-cultured with vascular endothelial cells assessed as DNA fragmentation at 70 ug/mL after 10 hrs. In kind it is functional, cell-based. The settings on record: Mus musculus.
The test system of test [3] is Endothelial cell. Put plainly: Induction of apoptosis in neural stem cells co-cultured with vascular endothelial cells assessed as nuclear condensation at 70 ug/mL after 10 hrs. In kind it is functional, cell-based. The note with it: Mus musculus.
Test [4] deals with Endothelial cell. Put plainly: Induction of apoptosis in neural stem cells co-cultured with vascular endothelial cells assessed as neurites degeneration at 70 ug/mL after 10 hrs. The class given is functional, cell-based. The settings on record: Mus musculus.
The test system of test [5] is Endothelial cell. Put plainly: Induction of apoptosis in neural stem cells co-cultured with vascular endothelial cells assessed as inhibition of cell differentiation at 70 ug/mL after 10 hrs. In kind it is functional, cell-based. The note with it: Mus musculus.
Test [6] in a line: Increase in apoptosis rate in neural stem cells co-cultured with vascular endothelial cells assessed as cell survival at 70 ug/mL after 10 hrs. In kind it is functional. The note with it: Mus musculus, read-out: Activity.
The next test has as its system Neural stem cell. Put plainly: Induction of apoptosis in neural stem cells assessed as cell viability at 10 to 100 ug/mL by MTT assay. In kind it is functional, cell-based. The note with it: Mus musculus. Background: Tetrazolium dyes change colour on reduction, which living cells bring about.

Calls of active or inactive are those of the source. No cut-off for these calls is given here.

Take `c1cc2c(cc1CC1CO1)OCO2` (configuration not stated): the outcome with Endothelial cell [1] and with Neural stem cell was inactive. The result in the test on Endothelial cell [2], with Endothelial cell [3], with Endothelial cell [4] and in the test on Endothelial cell [5] was Active. Besides, the viability at 70 µg/mL in test [6] was 92%.
